Reference: patent US9422285B2, “Substituted pyrazolo[1,5-A]-pyridine-3-carboxamides and use thereof” (Bayer Pharma Aktiengesellschaft, priority 2014, dated 2016)
Counter-ions that a name gives are not always drawn.

Biological target: T1, recombinant guanylate cyclase reporter cell line (Rattus norvegicus, UniProt P19686+P20595)
T1 construct: expressed in transfected cells
T1 sequence (P19686 1-690): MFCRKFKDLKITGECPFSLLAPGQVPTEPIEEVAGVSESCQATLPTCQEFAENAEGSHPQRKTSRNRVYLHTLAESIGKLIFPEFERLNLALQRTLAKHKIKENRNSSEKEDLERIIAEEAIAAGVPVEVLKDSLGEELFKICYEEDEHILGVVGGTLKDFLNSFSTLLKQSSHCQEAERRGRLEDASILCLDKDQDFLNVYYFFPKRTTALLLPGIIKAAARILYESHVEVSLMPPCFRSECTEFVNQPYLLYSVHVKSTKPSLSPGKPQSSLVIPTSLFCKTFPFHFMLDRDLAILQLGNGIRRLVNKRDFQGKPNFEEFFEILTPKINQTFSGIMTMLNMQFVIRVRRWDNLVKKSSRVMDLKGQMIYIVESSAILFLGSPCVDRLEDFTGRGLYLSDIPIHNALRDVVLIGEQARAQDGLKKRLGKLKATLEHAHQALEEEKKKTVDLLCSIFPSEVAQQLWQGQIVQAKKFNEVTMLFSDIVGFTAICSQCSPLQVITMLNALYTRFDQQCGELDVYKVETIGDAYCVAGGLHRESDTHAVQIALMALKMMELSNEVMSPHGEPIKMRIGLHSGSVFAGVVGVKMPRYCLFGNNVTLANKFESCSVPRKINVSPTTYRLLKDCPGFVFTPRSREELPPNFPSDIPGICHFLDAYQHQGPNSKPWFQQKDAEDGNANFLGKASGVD
T1 sequence (P20595 1-619): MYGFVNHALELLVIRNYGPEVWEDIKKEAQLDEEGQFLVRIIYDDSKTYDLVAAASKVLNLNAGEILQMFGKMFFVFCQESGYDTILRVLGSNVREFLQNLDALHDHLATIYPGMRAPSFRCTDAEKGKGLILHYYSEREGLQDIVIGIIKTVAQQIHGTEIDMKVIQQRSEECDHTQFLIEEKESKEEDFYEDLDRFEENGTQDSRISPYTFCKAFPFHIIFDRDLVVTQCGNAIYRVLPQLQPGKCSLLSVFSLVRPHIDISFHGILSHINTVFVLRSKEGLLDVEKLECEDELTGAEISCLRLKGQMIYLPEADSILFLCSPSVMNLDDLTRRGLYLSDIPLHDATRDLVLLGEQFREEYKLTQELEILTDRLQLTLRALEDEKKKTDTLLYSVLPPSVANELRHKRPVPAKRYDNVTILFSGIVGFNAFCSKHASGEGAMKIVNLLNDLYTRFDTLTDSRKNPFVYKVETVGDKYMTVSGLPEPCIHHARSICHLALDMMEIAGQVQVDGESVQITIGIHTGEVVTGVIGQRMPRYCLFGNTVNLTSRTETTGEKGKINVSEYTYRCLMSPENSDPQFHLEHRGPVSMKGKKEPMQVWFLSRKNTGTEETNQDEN
Assay: Effect on a recombinant guanylate cyclase reporter cell line (B-2)
Assay type: cell-based
Conditions: in some cases mean values for individual determinations
Method: B-2. Effect on a Recombinant Guanylate Cyclase Reporter Cell Line
The cellular effect of the inventive compounds is determined using a recombinant guanylate cyclase reporter cell line, as described in F. Wunder et al., Anal. Biochem. 339, 104-112 (2005).
Representative MEC values (MEC=minimum effective concentration) for the inventive compounds are shown in the table below (in some cases as mean values for individual determinations): […]

Compound	MEC (minimum effective concentration)
Cc1cc(OCc2c(F)cccc2F)n2nc(C)c(C(=O)NCC3CNC(=O)O3)c2c1 (racemic) [Example 100, rac-7-[(2,6-Difluorobenzyl)oxy]-2,5-dimethyl-N-[(2-oxo-1,3-oxazolidin-5-yl)methyl]pyrazolo[1,5-a]pyridine-3-carboxamide]	10 µM
Cc1cc(OCc2c(F)cccc2F)n2nc(C)c(C(=O)NCC(C)(N)CCF)c2c1 (single isomer, unassigned) [Example 49, ent-N-(2-Amino-4-fluoro-2-methylbutyl)-7-[(2,6-difluorobenzyl)oxy]-2,5-dimethylpyrazolo[1,5-a]pyridine-3-carboxamide]	0.3 µM
Cc1cc(OCc2c(F)cccc2F)n2nc(C)c(C(=O)N[C@@H](CC(=O)OC(C)(C)C)CC(C)C)c2c1 [Example 37, tert-Butyl (3R)-3-[({7-[(2,6-difluorobenzyl)oxy]-2,5-dimethylpyrazolo[1,5-a]pyridin-3-yl}carbonyl)amino]-5-methylhexanoate]	10 µM
Cc1cc(OCc2c(F)cccc2F)n2nc(C)c(C(=O)NC3COc4ccccc43)c2c1 (racemic) [Example 108, rac-7-[(2,6-Difluorobenzyl)oxy]-N-(2,3-dihydro-1-benzofur-3-yl)-2,5-dimethylpyrazolo[1,5-a]pyridine-3-carboxamide]	0.3 µM
Cc1cc(OCc2c(F)cccc2F)n2nc(C)c(C(=O)NC(CN)c3cccc(OC(F)(F)F)c3)c2c1 (racemic) [Example 132, rac-N-{2-Amino-1-[3-(trifluoromethoxy)phenyl]ethyl}-7-[(2,6-difluorobenzyl)oxy]-2,5-dimethylpyrazolo[1,5-a]pyridine-3-carboxamide]	1.0 µM
Cc1cc(OCc2c(F)ccc(F)c2F)n2nc(C)c(C(=O)Nc3c(C)nn(CCO)c3C)c2c1 [Example 11, N-[1-(2-Hydroxyethyl)-3,5-dimethyl-1H-pyrazol-4-yl]-2,5-dimethyl-7-[(2,3,6-trifluorobenzyl)oxy]pyrazolo[1,5-a]pyridine-3-carboxamide]	1.0 µM
Cc1cc(OCc2c(F)cccc2F)n2nc(C)c(C(=O)N[C@@H](CO)c3nnc([C@@H](N)C(C)C)o3)c2c1 [Example 179, N-[(1S)-1-{5-[(1S)-1-Amino-2-methylpropyl]-1,3,4-oxadiazol-2-yl}-2-hydroxyethyl]-7-[(2,6-difluorobenzyl)oxy]-2,5-dimethylpyrazolo[1,5-a]pyridine-3-carboxamide]	10 µM
COC(=O)C12CCC(NC(=O)c3c(C)nn4c(OCc5c(F)cccc5F)cc(C)cc34)(CC1)CC2 [Example 152, methyl 4-[({7-[(2,6-difluorobenzyl)oxy]-2,5-dimethylpyrazolo[1,5-a]pyridin-3-yl}carbonyl)amino]bicyclo[2.2.2]octane-1-carboxylate]	0.3 µM
Cc1cc(OCc2c(F)cccc2F)n2nc(C)c(C(=O)NC3CCCCNC3)c2c1 (racemic) [Example 127, rac-N-(Azepan-3-yl)-7-[(2,6-difluorobenzyl)oxy]-2,5-dimethylpyrazolo[1,5-a]pyridine-3-carboxamide]	0.3 µM
Cc1cc(OCc2c(F)cccc2F)n2nc(C)c(C(=O)NC3CCCc4ccccc43)c2c1 (racemic) [Example 138, rac-7-[(2,6-Difluorobenzyl)oxy]-2,5-dimethyl-N-(1,2,3,4-tetrahydronaphthalen-1-yl)pyrazolo[1,5-a]pyridine-3-carboxamide]	0.1 µM
Cc1cc(OCc2c(F)cccc2F)n2nc(C)c(C(=O)NC(CN)c3ccc(F)c(F)c3)c2c1 (stereo not drawn) [Example 133, ent-N-[2-Amino-1-(3,4-difluorophenyl)ethyl]-7-[(2,6-difluorobenzyl)oxy]-2,5-dimethylpyrazolo[1,5-a]pyridine-3-carboxamide]	0.3 µM
Cc1cc(OCc2c(F)cccc2F)n2nc(C)c(C(=O)NCC3(N)COC3)c2c1 [Example 60, N-[(3-Aminooxetan-3-yl)methyl]-7-[(2,6-difluorobenzyl)oxy]-2,5-dimethylpyrazolo[1,5-a]pyridine-3-carboxamide]	3.0 µM
Cc1cc(OCc2c(F)cccc2F)n2nc(C)c(C(=O)NC3(c4ccc(F)c(F)c4)CC3)c2c1 [Example 90, 7-[(2,6-Difluorobenzyl)oxy]-N[1-(3,4-difluorophenyl)cyclopropyl]-2,5-dimethylpyrazolo[1,5-a]pyridine-3-carboxamide]	0.1 µM
Cc1cc(OCc2c(F)ccc(F)c2F)n2nc(C)c(C(=O)N[C@H]3CCOC3=O)c2c1 [Example 27, 2,5-Dimethyl-N-[(3S)-2-oxotetrahydrofuran-3-yl]-7-[(2,3,6-trifluorobenzyl)oxy]pyrazolo[1,5-a]pyridine-3-carboxamide]	0.3 µM
Cc1cc(OCc2c(F)cccc2F)n2nc(C)c(C(=O)N[C@H]3c4ccccc4C[C@H]3CO)c2c1 (relative stereo) [Example 143, rel-7-[(2,6-Difluorobenzyl)oxy]-N-[(1R,2R)-2-(hydroxymethyl)-2,3-dihydro-1H-inden-1-yl]-2,5-dimethylpyrazolo[1,5-a]pyridine-3-carboxamide]	0.3 µM
Cc1cc(OCc2c(F)cccc2F)n2nc(C)c(C(=O)NCC(=O)NC3CC3)c2c1 [Example 89, N-[2-(Cyclopropylamino)-2-oxoethyl]-7-[(2,6-difluorobenzyl)oxy]-2,5-dimethylpyrazolo[1,5-a]pyridine-3-carboxamide]	3.0 µM
Cc1cc(OCc2c(F)cccc2F)n2nc(C)c(C(=O)NC3CCNC(C(F)(F)F)C3)c2c1 (stereo not shown) [Example 154, 7-[(2,6-Difluorobenzyl)oxy]-2,5-dimethyl-N-[2-(trifluoromethyl)piperidin-4-yl]pyrazolo[1,5-a]pyridine-3-carboxamide]	1.0 µM
Cc1cc(OCc2c(F)ccc(F)c2F)n2nc(C)c(C(=O)NCc3ccccc3-n3ccnc3)c2c1 [Example 32, N-[2-(1H-Imidazol-1-yl)benzyl]-2,5-dimethyl-7-[(2,3,6-trifluorobenzyl)oxy]pyrazolo[1,5-a]pyridine-3-carboxamide]	0.3 µM
Cc1cc(OCc2c(F)cccc2F)n2nc(C)c(C(=O)NC3CC(=O)Nc4ccccc43)c2c1 (racemic) [Example 76, rac-7-[(2,6-Difluorobenzyl)oxy]-2,5-dimethyl-N-(2-oxo-1,2,3,4-tetrahydroquinolin-4-yl)pyrazolo[1,5-a]pyridine-3-carboxamide trifluoroacetate]	0.3 µM
Cc1cc(OCc2c(F)cccc2F)n2nc(C)c(C(=O)NNC(=O)CN3CCCC3=O)c2c1 [Example 175, 7-[(2,6-Difluorobenzyl)oxy]-2,5-dimethyl-N′-[(2-oxopyrrolidin-1-yl)acetyl]pyrazolo[1,5-a]pyridine-3-carbohydrazide trifluoroacetate]	10 µM
Cc1cc(OCc2c(F)cccc2F)n2nc(C)c(C(=O)NCC(N)c3cccc(OCCO)c3)c2c1 (racemic) [Example 72, rac-N-{2-Amino-2-[3-(2-hydroxyethoxy)phenyl]ethyl]-7-[(2,6-difluorobenzyl)oxy]-2,5-dimethylpyrazolo[1,5-a]pyridine-3-carboxamide trifluoroacetate]	10 µM
Cc1cc(OCc2c(F)ccc(F)c2F)n2nc(C)c(C(=O)NC(C)COCC(F)(F)F)c2c1 (racemic) [Example 24, rac-2,5-Dimethyl-7-[(2,3,6-trifluorobenzyl)oxy]-N-[1-(2,2,2-trifluoroethoxy)propan-2-yl]pyrazolo[1,5-a]pyridine-3-carboxamide]	0.3 µM
